Results: patent US11279681B2, “3-alkyl bicyclic [4,5,0] hydroxamic acids as HDAC inhibitors” (Valo Health, Inc., priority 2015, dated 2022)

molecular target: T1, HDAC6 (Homo sapiens, UniProt Q9UBN7); assay: In vitro histone deacetylase assay: enzymatic HDAC6 electrophoretic mobility shift assay; assay type: biochemical; details: full length human recombinant HDAC6, 1 nM enzyme, 2 μM peptide substrate RHKK(Ac)-NH2, 25° C.; read-out: Inhibitory Concentration (IC50) Values for Representative Compounds against HDAC6, Activity Range
T1 sequence (Q9UBN7 1-1215): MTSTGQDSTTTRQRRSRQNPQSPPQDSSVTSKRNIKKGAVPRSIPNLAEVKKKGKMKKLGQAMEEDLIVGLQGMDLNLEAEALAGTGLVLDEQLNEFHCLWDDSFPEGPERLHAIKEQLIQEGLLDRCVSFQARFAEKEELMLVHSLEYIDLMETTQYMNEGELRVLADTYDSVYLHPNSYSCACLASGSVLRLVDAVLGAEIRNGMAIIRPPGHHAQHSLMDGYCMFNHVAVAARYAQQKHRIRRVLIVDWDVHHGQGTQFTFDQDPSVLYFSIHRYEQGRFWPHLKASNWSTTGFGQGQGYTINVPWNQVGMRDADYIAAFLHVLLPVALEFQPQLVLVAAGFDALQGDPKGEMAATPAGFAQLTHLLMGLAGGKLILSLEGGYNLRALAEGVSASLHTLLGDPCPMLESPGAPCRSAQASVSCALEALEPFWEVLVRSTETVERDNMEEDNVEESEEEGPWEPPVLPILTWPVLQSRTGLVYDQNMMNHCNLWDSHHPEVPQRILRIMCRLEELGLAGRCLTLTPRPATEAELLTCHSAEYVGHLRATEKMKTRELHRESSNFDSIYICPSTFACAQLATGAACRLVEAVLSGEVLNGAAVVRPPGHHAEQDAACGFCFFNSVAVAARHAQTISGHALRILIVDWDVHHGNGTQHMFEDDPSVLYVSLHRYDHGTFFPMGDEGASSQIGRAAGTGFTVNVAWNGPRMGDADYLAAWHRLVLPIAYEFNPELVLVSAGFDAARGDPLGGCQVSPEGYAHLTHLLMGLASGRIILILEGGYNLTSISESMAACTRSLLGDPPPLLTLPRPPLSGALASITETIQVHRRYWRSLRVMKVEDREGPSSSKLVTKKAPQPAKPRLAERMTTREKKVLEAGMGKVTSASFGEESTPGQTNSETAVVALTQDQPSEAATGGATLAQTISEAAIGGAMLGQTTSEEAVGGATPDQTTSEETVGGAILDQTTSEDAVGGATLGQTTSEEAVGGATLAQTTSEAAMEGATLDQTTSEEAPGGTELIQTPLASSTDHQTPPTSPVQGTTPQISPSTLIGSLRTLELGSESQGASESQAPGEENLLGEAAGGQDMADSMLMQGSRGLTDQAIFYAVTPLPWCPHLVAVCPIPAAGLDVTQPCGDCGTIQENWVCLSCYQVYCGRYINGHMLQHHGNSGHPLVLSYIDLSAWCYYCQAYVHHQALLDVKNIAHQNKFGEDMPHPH

C[C@H]1COc2cc(C(=O)NO)ccc2CN1c1ccc(C(F)(F)F)cc1 [(S)-N-hydroxy-3-methyl-4-(4-(trifluoromethyl)phenyl)-2,3,4,5-tetrahydrobenzo[f][1,4]oxazepine-8-carboxamide] and C[C@H]1COc2cc(C(=O)NO)ccc2CN1c1ccncc1 [(S)-N-hydroxy-3-methyl-4-(pyridin-4-yl)-2,3,4,5-tetrahydrobenzo[f][1,4]oxazepine-8-carboxamide] fall in the same range of IC50: 100 to 500 nM for the first, 100 to 500 nM for the second.

C[C@H]1COc2cc(C(=O)NO)ccc2CN1C(=O)N1CCN(C)CC1 [(S)-N-hydroxy-3-methyl-4-(4-methylpiperazine-1-carbonyl)-2,3,4,5-tetrahydrobenzo[f][1,4]oxazepine-8-carboxamide] and C[C@H]1COc2cc(C(=O)NO)ccc2CN1C(=O)N1CCCC1 [(S)-N-hydroxy-3-methyl-4-(pyrrolidine-1-carbonyl)-2,3,4,5-tetrahydrobenzo[f][1,4]oxazepine-8-carboxamide] cannot be ordered by IC50: 100 to 500 nM for the first, ≤ 100 nM for the second.

C[C@H]1COc2cc(C(=O)NO)ccc2CN1S(C)(=O)=O [(S)-N-hydroxy-3-methyl-4-(methylsulfonyl)-2,3,4,5-tetrahydrobenzo[f][1,4]oxazepine-8-carboxamide] and COCCN1Cc2ccc(C(=O)NO)cc2OC[C@@H]1C [(S)-N-hydroxy-4-(2-methoxyethyl)-3-methyl-2,3,4,5-tetrahydrobenzo[f][1,4]oxazepine-8-carboxamide] cannot be ordered by IC50: ≤ 100 nM for the first, ≤ 100 nM for the second.

C[C@H]1COc2cc(C(=O)NO)ccc2CN1C(=O)N1CCOCC1 [(S)-N-hydroxy-3-methyl-4-(morpholine-4-carbonyl)-2,3,4,5-tetrahydrobenzo[f][1,4]oxazepine-8-carboxamide] and C[C@H]1COc2cc(C(=O)NO)ccc2CN1C(=O)N1CCCCC1 [(S)-N-hydroxy-3-methyl-4-(piperidine-1-carbonyl)-2,3,4,5-tetrahydrobenzo[f][1,4]oxazepine-8-carboxamide] cannot be ordered by IC50: ≤ 100 nM for the first, ≤ 100 nM for the second.

Cc1ccccc1N1Cc2ccc(C(=O)NO)cc2OC[C@@H]1C [(S)-N-hydroxy-3-methyl-4-(o-tolyl)-2,3,4,5-tetrahydrobenzo[f][1,4]oxazepine-8-carboxamide] and COc1ccccc1N1Cc2ccc(C(=O)NO)cc2OC[C@@H]1C [(S)-N-hydroxy-4-(2-methoxyphenyl)-3-methyl-2,3,4,5-tetrahydrobenzo[f][1,4]oxazepine-8-carboxamide] cannot be ordered by IC50: ≤ 100 nM for the first, ≤ 100 nM for the second.

Compared with C[C@H]1COc2cc(C(=O)NO)ccc2CN1C1COC1 [(S)-N-hydroxy-3-methyl-4-(oxetan-3-yl)-2,3,4,5-tetrahydrobenzo[f][1,4]oxazepine-8-carboxamide], C[C@H]1COc2cc(C(=O)NO)ccc2CN1CC1COC1 [(S)-N-hydroxy-3-methyl-4-(oxetan-3-ylmethyl)-2,3,4,5-tetrahydrobenzo[f][1,4]oxazepine-8-carboxamide] is lower in IC50: > 500 nM for the first, ≤ 100 nM for the second.

C[C@H]1COc2cc(C(=O)NO)ccc2CN1c1ccccn1 [(S)-N-hydroxy-3-methyl-4-(pyridin-2-yl)-2,3,4,5-tetrahydrobenzo[f][1,4]oxazepine-8-carboxamide] and C[C@H]1COc2cc(C(=O)NO)ccc2CN1c1cccnc1 [(S)-N-hydroxy-3-methyl-4-(pyridin-3-yl)-2,3,4,5-tetrahydrobenzo[f][1,4]oxazepine-8-carboxamide] cannot be ordered by IC50: ≤ 100 nM for the first, ≤ 100 nM for the second.

COC1CN(C(=O)N2Cc3ccc(C(=O)NO)cc3OC[C@@H]2C)C1 [(S)-N-hydroxy-4-(3-methoxyazetidine-1-carbonyl)-3-methyl-2,3,4,5-tetrahydrobenzo[f][1,4]oxazepine-8-carboxamide] and COCCCN1Cc2ccc(C(=O)NO)cc2OC[C@@H]1C [(S)-N-hydroxy-4-(3-methoxypropyl)-3-methyl-2,3,4,5-tetrahydrobenzo[f][1,4]oxazepine-8-carboxamide] cannot be ordered by IC50: ≤ 100 nM for the first, 100 to 500 nM for the second.

COC[C@H]1COc2cc(C(=O)NO)ccc2CN1Cc1ccc(OC)cc1 [(S)-N-hydroxy-4-(4-methoxybenzyl)-3-(methoxymethyl)-2,3,4,5-tetrahydrobenzo[f][1,4]oxazepine-8-carboxamide] was tested, and the IC50 was ≤ 100 nM.
